Assay results reported in US20130267522A1, “METHODS FOR TREATING CANCER” (priority 2012, published 2013).

System: naturally-occurring InvTCC
Assay: Study of folate-vinblastine conjugate in dogs with naturally-occurring InvTCC (tumor response)
Type: in vivo
Conditions: IV once weekly, dose escalation from 0.2 mg/kg
Method: A study was performed in dogs with naturally-occurring InvTCC to investigate antitumor activity and toxicity of folate targeted vinblastine treatment. The study of folate targeted vinblastine was performed in privately owned dogs with naturally-occurring InvTCC at the Purdue University Veterinary Teaching Hospital (PUVTH), Inclusion criteria for dogs in the study included: measurable, histologically-confirmed InvTCC; positive folate uptake detected by scintigraphy or FR expression observed in the tumor via IHC; expected survival of at least 6 weeks; and written dog owner consent. The study was open to dogs that had failed other therapies or who were not eligible for standard therapy.
The folate-vinblastine conjugate EC0905 was used. Briefly, EC0905 is a water-soluble folate conjugate of desacetylvinblastine monohydrazide (DA VLBH), which is constructed with the DA VLBH drug moiety attached to a hydrophilic folate-peptide compound via an endosome-cleavable disulfide bond (FIG. 1). A dose escalation study was performed. EC0905 was administered IV once weekly (starting dose 0.2 mg/kg), Dose escalation was performed within and between dogs with at least 3 dogs in each dose group, and at least 6 dogs treated at the maximum tolerated dose (MTD) (increased by 0.02 mg/kg in each dose group). Toxicity was assessed by CBCs, serum chemistry profiles, urinalyses, physical exams, and owner observations. Toxicity was classified by Veterinary Cooperative Oncology Group (VCOG) criteria.
The EC0905 dose was reduced by 10% if grade 2 toxicity was noted, and by 20% if grade 3 or higher toxicity occurred. Treatment was delayed by one week if the neutrophil count was<3000/mm^3 or platelet count <100,000/mm^3 the day treatment was due. The treatment protocol was scheduled to continue until 8 weeks beyond complete remission, or until cancer progression, or until unacceptable toxicity was noted.
Physical exam, medical history, and CBC were obtained weekly. Monthly evaluation included CBC, serum biochemical profile, urinalysis, urinary tract ultrasound, and mapping of the bladder masses by ultrasound. Urinary tumors were measured by a single ultrasound operator, and estimated tumor volume was recorded. Prior to treatment and at 8-week intervals, complete tumor staging (thoracic radiography, full abdominal ultrasonography) was performed, and tumor stage determined by the World Health Organization criteria for canine urinary bladder tumors. Tumor response was defined as: complete remission (no cancer detected), partial remission (PR, ≧50% decrease in tumor volume and no new tumor lesions), stable disease (SD, <50% change in tumor volume and no new tumor lesions), and progressive disease (PD, ≧50% increase in tumor volume or the development of new tumor lesions).

With “Pte-γGlu-(Glu(1-amino-1-deoxy-D-glucitol)-Glu)3-Glu(1-amino-1-deoxy-D-glucitol)-Cys(S-ethyl-3-(4-desacetylvinblastinyl)hydrazinecarboxylate) [EC0905]” the “Partial remission (PR), percent of cases” value was 50%, the “Partial remission (PR, ≧50% decrease in tumor volume and no new tumor lesions), number of dogs” value was 5 dogs and the “Stable disease (SD), percent of cases” value was 50%. The “Stable disease (SD, <50% change in tumor volume and no new tumor lesions), number of dogs” value was 5 dogs.
